In ChEMBL document CHEMBL3351940, “Antioxidant effects of the highly-substituted carbazole alkaloids and their related carbazoles” (Bioorg Med Chem Lett, 2014) one finds IC50 and Activity data, which are given here for eleven compounds.

Data set [1] in a line: Antioxidant activity assessed as DPPH radical scavenging capacity after 30 mins by UV spectrophotometry. In kind it is physicochemical. Background: Loss of DPPH colour is used to gauge radical scavenging.
The nature of data set [2]: Antioxidant activity assessed as reduction of Cu2+ to Cu+ after 3 mins by PAO-SO method. Conditions: 0.05 h; call rule not given here. In kind it is physicochemical.
Data set [3] is described as follows: Cytotoxicity against human HCT116 cells assessed as reduction cell viability at 100 uM after 48 hrs by MTT assay. In kind it is cell-based. Conditions: hct-116, 48 h. (In general: Formazan colour is commonly taken as a measure of viable cells.)
A short description of data set [4]: Antioxidant activity assessed as ABTS+ radical scavenging capacity after 16 hrs by UV spectrophotometry. In kind it is physicochemical.

Usually IC50 stands for the concentration needed to halve the response being measured.

As for `CCCCCCCc1c(C)c(O)cc2c1[nH]c1ccccc12`, the IC50 in data set [1] is 12 µM; in data set [4], 159 µM. In addition, the Activity in data set [2] is 2803 µmol/L; in data set [3] it was “Non-toxic”.

With `C/C(=C\c1c(C)c(O)cc2c1[nH]c1c(O)ccc(CO)c12)CCC(C)C`, the half-inhibitory concentration (IC50) in data set [1] worked out at 9.9 µM; in data set [4], 112 µM. Further, the Activity in data set [2] was 3567 µmol/L; in data set [3] it was “Non-toxic”.

On to `C/C(=C\c1c(C)c(O)cc2c1[nH]c1c(O)ccc(C=O)c12)CCC(C)C`, for which the concentration for half-maximal inhibition (IC50) amounted to 7.1 µM in data set [1] and 52.6 µM in data set [4]. Moreover, the Activity in data set [2] is 4584 µmol/L; in data set [3], “Non-toxic”.

As to `CC[C@H](C)CC/C(C)=C/c1c(C)c(O)cc2c1[nH]c1c(O)ccc(CO)c12`, the concentration for half-maximal inhibition (IC50) in data set [1] was determined as 9.8 µM; in data set [4], 116 µM. The results for the Activity in data set [2] and in data set [3] were 3413 µmol/L and “Non-toxic”, respectively.

Regarding `CC[C@H](C)CC/C(C)=C/c1c(C)c(O)cc2c1[nH]c1c(O)ccc(C=O)c12`, the IC50 in data set [1] was determined as 7.6 µM; in data set [4] it was 57.1 µM. The figures for the Activity in data set [2] and in data set [3] were 4580 µmol/L and “Non-toxic”, respectively.

Turning to `CC(C)=CCc1ccc2[nH]c3c(c2c1)C(=O)C(=O)C(C)=C3CC(C)O` (centres undefined), the results for the IC50 in data set [1] and in data set [4] were > 50 µM and > 500 µM, respectively. Besides, the figures for the Activity in data set [2] and in data set [3] were 1182 µmol/L and “Toxic”, respectively.

Take `Cc1c(O)cc2c([nH]c3ccccc32)c1CC(C)O` (centres undefined): the IC50 in data set [1] worked out at 12 µM; in data set [4], 161 µM. In addition, the Activity in data set [2] is 2881 µmol/L; in data set [3], “Non-toxic”.

Regarding `CC(C)=CCc1ccc2[nH]c3c(CC(C)O)c(C)c(O)cc3c2c1` (centres undefined), the results for the IC50 in data set [1] and in data set [4] were 12 µM and 175 µM, respectively. The Activity in data set [2] is 2411 µmol/L; in data set [3], “Toxic”.

For the compound `Cc1c(C)c2c(c(C)c1O)CC[C@@](C)(CCC[C@H](C)CCC[C@H](C)CCCC(C)C)O2` [ALPHA-TOCOPHEROL], the values for the IC50 in data set [1] and in data set [4] were 15.4 µM and 211 µM, respectively. Further, the Activity entry in data set [2] is “Active”; in data set [3], “Non-toxic”.

`CC1=NN(c2ccccc2)C(=O)C1` [EDARAVONE]: the IC50 in data set [1] worked out at 19.7 µM; in data set [4], 214 µM. The Activity in data set [2] was 3096 µmol/L; in data set [3], “Non-toxic”.

`CCCOC(=O)c1cc(O)c(O)c(O)c1` [PROPYL GALLATE]: the results for the IC50 in data set [1] and in data set [4] were 6.1 µM and 188 µM, respectively. For the same compound, the values for the Activity in data set [2] and in data set [3] were 3096 µmol/L and “Non-toxic”, respectively.
